# Results published in PubChem BioAssay (NCI).
#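 48-hour exposure; five concentrations; linearly interpolated endpoints. TGI: concentration producing complete growth inhibition.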
# Key:
# Assay in all cases: NCI-60 cell line screen, 48 h
# PC-3 prostate = test system: PC-3 prostate
# CAKI-1 renal = test system: CAKI-1 renal
# MDA-MB-231 breast = test system: MDA-MB-231 breast
# MDA-N = test system: MDA-N
# SNB-19 CNS = test system: SNB-19 CNS
# NCI-H522 lung = test system: NCI-H522 lung
# HCT-15 colon = test system: HCT-15 colon
# UACC-257 melanoma = test system: UACC-257 melanoma
# HCT-116 colon = test system: HCT-116 colon
# SF-268 CNS = test system: SF-268 CNS
# A498 renal = test system: A498 renal
# SK-OV-3 ovarian = test system: SK-OV-3 ovarian
# HT29 colon = test system: HT29 colon
# MDA-MB-435 = test system: MDA-MB-435
# NCI-H226 lung = test system: NCI-H226 lung
# NCI-H23 lung = test system: NCI-H23 lung
# SN12C renal = test system: SN12C renal
# HCC-2998 colon = test system: HCC-2998 colon
# HOP-62 NSCLC = test system: HOP-62 NSCLC
# A549 NSCLC = test system: A549 NSCLC
# RPMI-8226 leukemia = test system: RPMI-8226 leukemia
# HS 578T breast = test system: HS 578T breast
# RXF 393 renal = test system: RXF 393 renal
# 786-0 renal = test system: 786-0 renal
# MOLT-4 leukemia = test system: MOLT-4 leukemia
# NCI/ADR-RES ovarian = test system: NCI/ADR-RES ovarian
# CCRF-CEM leukemia = test system: CCRF-CEM leukemia
# OVCAR-5 ovarian = test system: OVCAR-5 ovarian
# SK-MEL-5 melanoma = test system: SK-MEL-5 melanoma
# UO-31 renal = test system: UO-31 renal
# KM12 colon = test system: KM12 colon
# DU-145 prostate = test system: DU-145 prostate
# NCI-H460 lung = test system: NCI-H460 lung
# OVCAR-8 ovarian = test system: OVCAR-8 ovarian
# U251 CNS = test system: U251 CNS
# IGROV1 ovarian = test system: IGROV1 ovarian
# SW-620 colon = test system: SW-620 colon
# BT-549 breast = test system: BT-549 breast
# SNB-75 CNS = test system: SNB-75 CNS
# ACHN renal = test system: ACHN renal
# K-562 leukemia = test system: K-562 leukemia
# TK-10 renal = test system: TK-10 renal
# OVCAR-3 ovarian = test system: OVCAR-3 ovarian
# UACC-62 melanoma = test system: UACC-62 melanoma
# SF-295 CNS = test system: SF-295 CNS
# SK-MEL-2 melanoma = test system: SK-MEL-2 melanoma
# MCF7 breast = test system: MCF7 breast
# EKVX NSCLC = test system: EKVX NSCLC
# COLO 205 colon = test system: COLO 205 colon
# LOX IMVI melanoma = test system: LOX IMVI melanoma
# MALME-3M melanoma = test system: MALME-3M melanoma
# T-47D breast = test system: T-47D breast
# OVCAR-4 ovarian = test system: OVCAR-4 ovarian
# M14 melanoma = test system: M14 melanoma
# SR leukemia = test system: SR leukemia
# SK-MEL-28 melanoma = test system: SK-MEL-28 melanoma
# SF-539 CNS = test system: SF-539 CNS
# HL-60(TB) leukemia = test system: HL-60(TB) leukemia
# HOP-92 NSCLC = test system: HOP-92 NSCLC
smiles,measurement,setting,value
CC(=O)OCC(OC(C)=O)C(OC(C)=O)C(OC(C)=O)C(C=NN(C(C)=O)S(=O)(=O)c1ccc(/C=C2\NC(=O)NC2=O)cc1)OC(C)=O (centres undefined),TGI,PC-3 prostate,> 100 µM
same,TGI,CAKI-1 renal,> 100 µM
same,TGI,MDA-MB-231 breast,> 100 µM
same,TGI,MDA-N,> 100 µM
same,TGI,SNB-19 CNS,> 100 µM
same,TGI,NCI-H522 lung,> 100 µM
same,TGI,HCT-15 colon,> 100 µM
same,TGI,UACC-257 melanoma,> 100 µM
same,TGI,HCT-116 colon,> 100 µM
same,TGI,SF-268 CNS,> 100 µM
same,TGI,A498 renal,> 100 µM
same,TGI,SK-OV-3 ovarian,> 100 µM
same,TGI,HT29 colon,> 100 µM
same,TGI,MDA-MB-435,> 100 µM
same,TGI,NCI-H226 lung,> 100 µM
same,TGI,NCI-H23 lung,> 100 µM
same,TGI,SN12C renal,> 100 µM
same,TGI,HCC-2998 colon,> 100 µM
same,TGI,HOP-62 NSCLC,> 100 µM
same,TGI,A549 NSCLC,> 100 µM
same,TGI,RPMI-8226 leukemia,> 100 µM
same,TGI,HS 578T breast,> 100 µM
same,TGI,RXF 393 renal,> 100 µM
same,TGI,786-0 renal,> 100 µM
same,TGI,MOLT-4 leukemia,> 100 µM
same,TGI,NCI/ADR-RES ovarian,> 100 µM
same,TGI,CCRF-CEM leukemia,> 100 µM
same,TGI,OVCAR-5 ovarian,> 100 µM
same,TGI,SK-MEL-5 melanoma,> 100 µM
same,TGI,UO-31 renal,> 100 µM
same,TGI,KM12 colon,> 100 µM
same,TGI,DU-145 prostate,> 100 µM
same,TGI,NCI-H460 lung,> 100 µM
same,TGI,OVCAR-8 ovarian,> 100 µM
same,TGI,U251 CNS,> 100 µM
same,TGI,IGROV1 ovarian,> 100 µM
same,TGI,SW-620 colon,> 100 µM
same,TGI,BT-549 breast,> 100 µM
same,TGI,SNB-75 CNS,> 100 µM
same,TGI,ACHN renal,> 100 µM
same,TGI,K-562 leukemia,> 100 µM
same,TGI,TK-10 renal,> 100 µM
same,TGI,OVCAR-3 ovarian,> 100 µM
same,TGI,UACC-62 melanoma,> 100 µM
same,TGI,SF-295 CNS,> 100 µM
same,TGI,SK-MEL-2 melanoma,> 100 µM
same,TGI,MCF7 breast,> 100 µM
same,TGI,EKVX NSCLC,> 100 µM
same,TGI,COLO 205 colon,> 100 µM
same,TGI,LOX IMVI melanoma,> 100 µM
same,TGI,MALME-3M melanoma,> 100 µM
same,TGI,T-47D breast,> 100 µM
same,TGI,OVCAR-4 ovarian,> 100 µM
same,TGI,M14 melanoma,> 100 µM
COc1cc(S(=O)(=O)Nc2nc(-c3ccc(N4C(=O)/C(=C/c5ccccc5[N+](=O)[O-])N=C4c4ccccc4)cc3)cs2)ccc1Cl,TGI,SR leukemia,> 100 µM
same,TGI,PC-3 prostate,> 100 µM
same,TGI,CAKI-1 renal,> 100 µM
same,TGI,SK-MEL-28 melanoma,> 100 µM
same,TGI,MDA-MB-231 breast,42.2 µM
same,TGI,MDA-N,> 100 µM
same,TGI,SNB-19 CNS,> 100 µM
same,TGI,NCI-H522 lung,> 100 µM
same,TGI,HCT-15 colon,> 100 µM
same,TGI,UACC-257 melanoma,> 100 µM
same,TGI,HCT-116 colon,> 100 µM
same,TGI,SF-268 CNS,> 100 µM
same,TGI,A498 renal,> 100 µM
same,TGI,SK-OV-3 ovarian,> 100 µM
same,TGI,SF-539 CNS,> 100 µM
same,TGI,HT29 colon,> 100 µM
same,TGI,MDA-MB-435,> 100 µM
same,TGI,NCI-H226 lung,> 100 µM
same,TGI,NCI-H23 lung,> 100 µM
same,TGI,SN12C renal,> 100 µM
same,TGI,HOP-62 NSCLC,> 100 µM
same,TGI,A549 NSCLC,> 100 µM
same,TGI,RXF 393 renal,> 100 µM
same,TGI,786-0 renal,> 100 µM
same,TGI,MOLT-4 leukemia,> 100 µM
same,TGI,NCI/ADR-RES ovarian,> 100 µM
same,TGI,HL-60(TB) leukemia,> 100 µM
same,TGI,CCRF-CEM leukemia,> 100 µM
same,TGI,OVCAR-5 ovarian,> 100 µM
same,TGI,SK-MEL-5 melanoma,> 100 µM
same,TGI,UO-31 renal,> 100 µM
same,TGI,KM12 colon,> 100 µM
same,TGI,DU-145 prostate,> 100 µM
same,TGI,NCI-H460 lung,> 100 µM
same,TGI,OVCAR-8 ovarian,> 100 µM
same,TGI,U251 CNS,> 100 µM
same,TGI,IGROV1 ovarian,> 100 µM
same,TGI,SW-620 colon,> 100 µM
same,TGI,BT-549 breast,74.7 µM
same,TGI,HOP-92 NSCLC,> 100 µM
same,TGI,SNB-75 CNS,> 100 µM
same,TGI,ACHN renal,> 100 µM
same,TGI,K-562 leukemia,> 100 µM
same,TGI,TK-10 renal,> 100 µM
same,TGI,OVCAR-3 ovarian,> 100 µM
same,TGI,UACC-62 melanoma,92.8 µM
same,TGI,SF-295 CNS,> 100 µM
same,TGI,SK-MEL-2 melanoma,> 100 µM
same,TGI,MCF7 breast,> 100 µM
same,TGI,COLO 205 colon,> 100 µM
same,TGI,LOX IMVI melanoma,> 100 µM
same,TGI,MALME-3M melanoma,> 100 µM
same,TGI,T-47D breast,> 100 µM
same,TGI,OVCAR-4 ovarian,> 100 µM
same,TGI,M14 melanoma,> 100 µM
